Reference: patent US11607458B2 (Georgia State University Research Foundation, Inc, priority 2017, dated 2023)
Values joined by “and” are separate entries in the source; they are usually repeats but may differ in a detail not shown here. Equal values may be shown once. Read-outs that look alike come from different tables or passages of the source.

How the values were obtained:
[1] = Release of the parent drug (Dox / dansyl amine) from prodrugs treated with alkynes, monitored by HPLC; assay type: physicochemical; details: r.t, PBS 10% DMSO
Protocol: Standard curve of Dox concentration measurement. To four HPLC vials containing 0.9 mL PBS (size: 1.5 mL) were added 25, 15, 20, 10 μL Dox stock solution (1 mM) respectively. Then defined amounts DMSO (975, 985, 980, and 990 μL) were added to each vial to afford final concentration of four vials were 25, 15, 20, 10 μM in PBS (10% DMSO), respectively. The samples were analyzed with HPLC method A. Dox retention time: 4.0 min.
Standard curve for DA concentration measurement. To four HPLC vials containing 0.9 mL PBS (size: 1.5 mL) were added 25, 15, 20, 10 μL Dox stock solution (1 mM) respectively. Then defined amounts DMSO (975, 985, 980, and 990 μL) were added to each vial to afford final concentration of four vials were 25, 15, 20, 10 μM in PBS (10% DMSO), respectively. The samples were analyzed with HPLC method B. DA retention time: 5.8 min.
General procedures HPLC studies of reaction kinetics. To three 20-ml vials with 9 mL PBS were added a solution of tetrazine prodrug (500 μL, 500 μM). 350 μL, 300 μL and 250 μL DMSO were added to vial respectively, and then 150 μL, 200 μL and 250 μL of the alkyne solution (50 mM in DMSO) were added to the vials to afford final concentrations of alkyne 0.75 mM, 1 mM and 1.25 mM in PBS (10% DMSO, 25 μM prodrug) respectively. The reaction was stirred at r.t or 37° C. respectively. Every 30 min about 500 μL reaction mixtures were taken out and 20 μL of them were injected into the HPLC by the autosampler; the rest of them were poured back to the reaction mixture. (Note: In the cases of prodrugs 1d or 1b reacting with alkyne 2d at 37° C., the final concentrations of 2d in the kinetic studies were 250 μM, 300 μM and 350 μM).
Results. The results from the reaction kinetics studies of the tetrazine-cyclooctyne system are summarized below in Table 4. Prodrugs 1d or 1b (25 μM) were treated with alkynes 2d, 2c ,2a, or 2b at different concentrations at room temperature (r.t.) or 37° C., respectively. The prodrug consumption and release of the parent drug were monitored by HPLC (Table 4).

[2] = Stability of tetrazine prodrugs in PBS with or without 1 mM cysteine (HPLC); assay type: physicochemical; details: 25 μM, n = 4; for Prodrugs remaining, 24 h in PBS with 1 mM Cys at 37° C. / Prodrugs remaining, 24 h in PBS with 1 mM Cys at r.t: PBS (5% DMSO) with 1 mM Cys; for Prodrugs remaining, 24 h in PBS at 37° C. / Prodrugs remaining, 24 h in PBS at r.t: PBS (5% DMSO)
Protocol: Due to the electron deficient nature of the tetrazine moiety, the stability of the tetrazine-linked prodrugs in the presence of high concentrations of thiol species was studied. In general, a solution of tetrazine prodrug (500 μL, 500 μM) was added to either 9.5 mL of PBS or 1 mM cysteine solution in PBS in a 20-mL vial. The solution was stirred at r.t. or 37° C. for 24 h. The reaction solution was injected into HPLC, and analyzed with Method A (described above) for prodrugs 1b and 1c, and Method B for prodrug 1d.
Prodrug (1d or 1b, 25 μM in PBS alone or in the presence of 1 mM cysteine (Cys) in PBS) was incubated at r.t or 37° C. for 24 h. Then HPLC was used to monitor the concentration of the remaining prodrug (Table 5). No stability problems were observed.

HeLa cells = assay: Cytotoxicity studies in HeLa cells (MTT assay / crystal violet assay); assay type: cell-based
Protocol: Cell cultures. HeLa cells (ATCC) were used in the following cell culture studies. HeLa cells were maintained in DMEM (Dulbecco's Modified Eagle's Medium) supplemented with 10% fetal bovine serum (MidSci; S01520HI), and 1% penicillin-streptomycin (Sigma-Aldrich; P4333) at 37° C. with 5% CO2.
Cytotoxicity studies. Test compound was dissolved in DMSO to afford a stock solution. The final concentration of DMSO in the cell culture was 1% (v/v) in PBS. HeLa cells were seeded in 96-well plates one day before the experiment. Different concentrations of prodrug was added into the cell culture. The cells were then incubated for 48 h at 37° C. with 5% CO2. The cell viability was tested by the MTT assay described in Levitz, S. M., et al. J Infect Dis 1985, 152, 938-945. Specifically, after 48 h of incubation, 5 mg/mL MTT (3-(4,5-dimethylthiazol-2-yl)-2,5-diphenyltetrazolium bromide) was added into the cell culture. After incubation for 4 h, the supernatant was removed and 100 μL DMSO was added into the wells containing the cells. After shaking gently for 3 min, absorbance at 605 nm was read by a plate reader.
Cytotoxicity studies using crystal violet assay. The test compound was dissolved in DMSO to afford a stock solution. The final concentration of DMSO in cell culture was 1% (v/v) in PBS. HeLa cells were seeded in 96-well plates one day before the experiment. Different concentrations of the test compound were added into the cell culture. The cells were then incubated for 48 h at 37° C. with 5% CO2. Cell viability was tested by the crystal violet assay. Specifically, after 48 h of incubation, the cells were fixed in 100% methanol for 10 min and stained for 20 min with a 1% crystal violet solution in 50% methanol, followed by 5 repeated washings with PBS. 50 μL of DMSO was added to each well. After 20 min of incubation, the plates were analyzed in a microplate reader at 595 nm.
Similar results were observed when the alkyne concentration was decreased to 10 μM. For example, the IC50 of TPP-Dox prodrug 1c was about 2 μM in the presence of 2b, while the IC50 for Dox prodrug 1b was well over 10 μM in the presence of 10 μM of the alkyne trigger 2a (FIG. 3a). As controls, both the IC50 values of 1c and 2b alone were higher than 40 μM, and the treatment of 20 μM of alkyne 2a or 2b alone had no effect on cell viability. […] Without such an enrichment, the reaction is expected to be slow, resulting in a lower level of active Dox being released. […] Thus, mitochondrial enrichment leads to triggered release of the drug. The same concept is applicable to the delivery of drugs through other targeting approaches such as receptor-mediated drug delivery.

Compound | Time of the Dox peak (in brackets in the Dox Peak % cell) ([1]; alkyne 2a) | Time of the Dox peak (in brackets in the Dox Peak % cell) ([1]; alkyne 2b) | Time of the Dox peak (in brackets in the Dox Peak % cell) ([1]; alkyne 2c) | Time of the Dox peak (in brackets in the Dox Peak % cell) ([1]; alkyne 2d) | Prodrugs remaining, 24 h in PBS with 1 mM Cys at 37° C. [2] | Prodrugs remaining, 24 h in PBS with 1 mM Cys at r.t [2] | Prodrugs remaining, 24 h in PBS at 37° C. [2] | Prodrugs remaining, 24 h in PBS at r.t [2] | IC50 (HeLa cells; compound alone, 48 h, read-out: IC50 in Hela cell line) | IC50 (HeLa cells; in the presence of 10 μM alkyne trigger 2a, 48 hours (FIG. 3a), read-out: IC50 in HeLa cells) | IC50 (HeLa cells; in the presence of 20 μM alkyne 2a, 48 hours (FIG. 3b), read-out: IC50 in HeLa cells) | IC50 (HeLa cells; in the presence of 50 μM alkyne 2b, 48 h, listed as Dox-prodrug 1b, read-out: IC50 in Hela cell line) | IC50 (HeLa cells; in the presence of 50 μM alkyne 2b, 48 h, listed as Dox-prodrug lb, read-out: IC50 in Hela cell line) | IC50 (HeLa cells; in the presence of 50 μM alkyne 2d, 48 h, listed as Dox-prodrug 1b, read-out: IC50 in Hela cell line) | IC50 (HeLa cells; in the presence of 100 μM alkyne 2d, 48 h, read-out: IC50 in Hela cell line) | IC50 (HeLa cells; Homo sapiens, HeLa, 48 h, compound alone, 48 h, read-out: IC50 in Hela cell line) | IC50 (HeLa cells; Homo sapiens, HeLa, 48 h, in the presence of 10 μM alkyne 2b, 48 hours (FIG. 3a), read-out: IC50 in HeLa cells) | IC50 (HeLa cells; Homo sapiens, HeLa, 48 h, in the presence of 20 μM TPP-alkyne 2b, 48 hours (FIG. 3b), read-out: IC50 in HeLa cells)
C#CCOc1ccc(-c2nnc(C(=O)NC3CC(OC4CC(O)(C(=O)CO)Cc5c(O)c6c(c(O)c54)C(=O)c4c(OC)cccc4C6=O)OC(C)C3O)nn2)cc1 (centres unmarked) [1b] | 19 h | 18 h | 21 h | 48 h | 76 ± 5% | 80 ± 5% | 78 ± 5% | 85 ± 5% | > 100000 nM | > 10000 nM | ~10000 nM | ~2000 nM | 2300 ± 400 nM | ~1500 nM and 1500 nM | 1300 ± 200 nM |  |  | 
COc1cccc2c1C(=O)c1c(O)c3c(c(O)c1C2=O)CC(O)(C(=O)CO)CC3OC1CC(NC(=O)c2nnc(-c3ccc(OCc4cn(CCCCCCCCC[P+](c5ccccc5)(c5ccccc5)c5ccccc5)nn4)cc3)nn2)C(O)C(C)O1 (centres unmarked) [1c] |  | 18 h |  |  |  |  |  |  |  |  |  |  |  |  |  | > 40000 nM | ~2000 nM | ~1500 nM
C#CCOc1ccc(-c2nnc(C(=O)NCCCOCCOCCOCCCNS(=O)(=O)c3cccc4c(N(C)C)cccc34)nn2)cc1 [1d] |  | 16 h | 20 h | 48 h | 81 ± 5% | 88 ± 5% | 85 ± 5% | 91 ± 5% |  |  |  |  |  |  |  |  |  | 
